Consider 18 compounds from patent US10206907B2, “Compounds useful for the treatment of degenerative and inflammatory diseases” (GALAPAGOS NV, priority 2008, dated 2019).

Series [1] is described as follows: Microsomal stability, human liver microsomes. In kind it is in vitro ADME. The following applies: percentage of compound remaining after 60 minutes, 3 μM compound. The protocol:
(§1) 40 μL of deionised water was added to a well of a polypropylene Matrix 2D barcode labelled storage tube (Thermo Scientific) and pre-incubated at 37° C.
(§2) A co-factor containing MgCl2, glucose-6-phosphate and NADP+ was prepared in deionised water and placed on ice before use.
(§3) A final working solution containing liver microsomes (Xenotech of a species of interest (human, mouse, rat, dog), previously described G6PDH and co-factors was prepared and this mix was incubated for no longer than 20 minutes at room temperature.
(§4) 30 μL of the pre-heated compound dilution was added to 40 μL of pre-heated water in the Matrix tubes and 30 μL of the microsomal mix was added.
(§5) To measure percentage remaining of compound at time zero MeOH or ACN was added (1:1) to the well before adding the microsomal mix.
(§6) The samples which were not stopped are incubated at 37° C., 300 rpm and after 1 hour of incubation the reaction was stopped with MeOH or ACN (1:1).
(§7) After stopping the reaction the samples were mixed and placed on ice for 30 min to precipitate the proteins.
(§8) The samples were analyzed on LCMS with a flow rate of 1 mL/min. Solvent A was 15 mM ammonia and solvent B was methanol or acetonitrile, depending on the stop solution used. […] The percentage remaining after 1 hour incubation was calculated from time 0 and was calculated as the percentage remaining.
(§9) The data on microsomal stability are expressed as a percentage of the total amount of compound remaining after 60 minutes.

Series [2] in a line: Microsomal stability, rat liver microsomes. In kind it is in vitro ADME. Particulars: percentage of compound remaining after 60 minutes, 3 μM compound. The protocol:
as §1, §2, §3, §4, §5, §6, §7, §8, §9

Series [3] concerns the target Recombinant human JAK1 catalytic domain (Homo sapiens (Human), UniProt P23458). Description: JAK1 inhibition assay. Format: biochemical. Particulars: semi-quantitative score. Put shortly:
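IC50 values come from dose-response series, with each point expressed as percent inhibition of cpm. Vehicle sets full activity and 10 μM staurosporine sets background. Incorporated radioactivity counted by scintillation after washing with 75 mM phosphoric acid.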

Series [4] relates to JAK-STAT signalling in HeLa cells. Description: JAK-STAT signalling assay (OSM-triggered pSTAT1(2)-luciferase reporter in HeLa cells). Format: cell-based. Particulars: Homo sapiens; HeLa cells, OSM-triggered pSTAT1(2)-luciferase reporter; read-out: STAT signalling EC50. Put shortly: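 Read-out is oncostatin M–driven pSTAT1(2)-luciferase activity, corrected by co-transfected LacZ β-galactosidase, in transiently transfected HeLa cells cultured overnight at 37 °C, 10% CO2. Inhibition percentages against positive and negative controls were plotted across doses to derive EC50.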

Another series relates to MMP13 in SW1353 cells. Briefly: OSM/IL-1β signaling assay (MMP13 levels in SW1353 cells).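 Note: secreted MMP13 captured by antibody, activated with APMA and its activity read by fluorescence, inhibition scaled between vehicle-treated triggered wells (0%) and untriggered wells (100%).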 In kind it is cell-based. Particulars: Homo sapiens; SW1353 cells, OSM and IL-1β triggered, MMP13 levels 48 hours after triggering; read-out: MMP13 EC50.
Series [5] addresses Recombinant human JAK2 catalytic domain (Homo sapiens (Human), UniProt O60674). Briefly: JAK2 inhibition assay. Format: biochemical. Particulars: semi-quantitative score. The essentials: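 Activity was taken as vehicle cpm minus cpm with 10 μM staurosporine, and inhibition was expressed on that scale. Incubation was 90 min at 30 °C, followed by acid quench, phosphoric acid washes and Microscint counting. Compounds were tested as dose series to obtain IC50.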

pEC50, pIC50: −log10 of the molar value. Where only a bound is given, the exact number is not on record here.

Sequence of Recombinant human JAK1 catalytic domain (P23458 850-1154): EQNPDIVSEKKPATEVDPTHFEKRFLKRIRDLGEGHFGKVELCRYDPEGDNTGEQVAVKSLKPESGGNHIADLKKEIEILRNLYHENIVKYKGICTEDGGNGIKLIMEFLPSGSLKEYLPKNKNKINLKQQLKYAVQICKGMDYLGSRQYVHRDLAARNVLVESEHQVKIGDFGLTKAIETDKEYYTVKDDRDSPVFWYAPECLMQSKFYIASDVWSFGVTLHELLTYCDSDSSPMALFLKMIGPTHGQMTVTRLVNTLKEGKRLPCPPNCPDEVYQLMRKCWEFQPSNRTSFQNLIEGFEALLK
Sequence of Recombinant human JAK2 catalytic domain (O60674 808-1132): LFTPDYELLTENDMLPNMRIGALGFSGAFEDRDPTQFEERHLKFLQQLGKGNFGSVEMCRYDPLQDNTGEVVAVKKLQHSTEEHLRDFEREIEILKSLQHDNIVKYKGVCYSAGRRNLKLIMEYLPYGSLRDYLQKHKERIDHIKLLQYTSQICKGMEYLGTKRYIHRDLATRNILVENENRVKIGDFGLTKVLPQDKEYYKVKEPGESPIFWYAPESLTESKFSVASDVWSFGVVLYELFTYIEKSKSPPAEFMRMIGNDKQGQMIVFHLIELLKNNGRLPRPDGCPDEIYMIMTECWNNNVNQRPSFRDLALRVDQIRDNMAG

With `O=C(Nc1ccncc1)c1ccc(-c2cccc3nc(NC(=O)C4CC4)nn23)cc1` [Compound 25, 4-(2-(cyclopropanecarboxamido)-[1,2,4]triazolo[1,5-a]pyridin-5-yl)-N-(pyridin-4-yl)benzamide], the “Microsomal Stability Human (%)” value in series [1] is “* (* 0-25)”. In series [2], the “Microsomal Stability Rat (%)” value was “* (* 0-25)”. In addition, in series [3], the pIC50 was > 7.00. The pEC50 (in series [4]; in the series on MMP13 in SW1353 cells) was < 6.00 throughout.
As for `O=C(Nc1nc2cccc(-c3ccc(NS(=O)(=O)c4cccnc4)cc3)n2n1)C1CC1` [Compound 64, N-(5-(4-(pyridine-3-sulfonamido)phenyl)-[1,2,4]triazolo[1,5-a]pyridin-2-yl)cyclopropanecarboxamide], the “Microsomal Stability Human (%)” value in series [1] is “**** (**** 76-100)”. Further, in series [2], the “Microsomal Stability Rat (%)” value is on record as “*** (*** 51-75)”. The pIC50 in series [3] was > 7.00. Moreover, the pEC50 (in series [4]; with MMP13 in SW1353 cells) was < 6.00 throughout.
On to `O=C(Nc1nc2cccc(-c3ccc(C(=O)N4CCCCC4)cc3F)n2n1)C1CC1` [Compound 89, N-(5-(2-fluoro-4-(piperidine-1-carbonyl)phenyl)-[1,2,4]triazolo[1,5-a]pyridin-2-yl)cyclopropanecarboxamide], for which the “Microsomal Stability Human (%)” value in series [1] is “*** (*** 51-75)”. Besides, the “Microsomal Stability Rat (%)” value in series [2] is “* (* 0-25)”. In series [3], the pIC50 is > 7.00. In addition, the pEC50 (in series [4]; in the series on MMP13 in SW1353 cells) was < 6.00 each time.
`O=C(Nc1nc2cccc(-c3ccc(C(=O)N4CCN(c5cccc(Cl)c5)CC4)cc3)n2n1)C1CC1` [Compound 113]: in series [1], the “Microsomal Stability Human (%)” value was “** (** 26-50)”. Further, the “Microsomal Stability Rat (%)” value in series [2] was “*** (*** 51-75)”. Further, in series [3], the pIC50 is > 7.00. Moreover, the pEC50 (in series [4]; in the series with MMP13 in SW1353 cells) was < 6.00 each time.
Turning to `CN(C(=O)COc1ccc(-c2cccc3nc(NC(=O)C4CC4)nn23)cc1)c1ccccc1` [Compound 118, N-(5-(4-(2-(methyl(phenyl)amino)-2-oxoethoxy)phenyl)-[1,2,4]triazolo[1,5-a]pyridin-2-yl)cyclopropanecarboxamide], in series [1], the “Microsomal Stability Human (%)” value is listed as “* (* 0-25)”. For the same compound, the “Microsomal Stability Rat (%)” value in series [2] is “* (* 0-25)”. For the same compound, the pIC50 in series [3] was > 7.00. Besides, the pEC50 (in series [4]; with MMP13 in SW1353 cells) was < 6.00 each time.
Take `O=C(N[C@@H]1CCN(Cc2ccccc2)C1)c1ccc(-c2cccc3nc(NC(=O)C4CC4)nn23)cc1` [Compound 120, (R)-N-(1-benzylpyrrolidin-3-yl)-4-(2-(cyclopropanecarboxamido)-[1,2,4]triazolo[1,5-a]pyridin-5-yl)benzamide]: the “Microsomal Stability Human (%)” value in series [1] is “* (* 0-25)”. In series [2], the “Microsomal Stability Rat (%)” value is given as “* (* 0-25)”. The pIC50 in series [3] was > 7.00. In addition, the pEC50 (in series [4]; in the series with MMP13 in SW1353 cells) was < 6.00 in each case.
`O=C(Nc1nc2cccc(-c3ccc(NS(=O)(=O)CCOc4ccccc4)cc3)n2n1)C1CC1` [Compound 122, N-(5-(4-(2-phenoxyethylsulfonamido)phenyl)-[1,2,4]triazolo[1,5-a]pyridin-2-yl)cyclopropanecarboxamide]: in series [1], the “Microsomal Stability Human (%)” value is “* (* 0-25)”. Also, the “Microsomal Stability Rat (%)” value in series [2] is listed as “* (* 0-25)”. For the same compound, the pIC50 in series [3] was > 7.00. Besides, the pEC50 (in series [4]; with MMP13 in SW1353 cells) was < 6.00 in each case.
As for `O=C(Nc1nc2cccc(-c3ccc(NCCc4ccccc4)nc3)n2n1)C1CC1` [Compound 123, N-(5-(6-(phenethylamino)pyridin-3-yl)-[1,2,4]triazolo[1,5-a]pyridin-2-yl)cyclopropanecarboxamide], in series [1], the “Microsomal Stability Human (%)” value is reported as “* (* 0-25)”. The “Microsomal Stability Rat (%)” value in series [2] was “* (* 0-25)”. In addition, the pIC50 in series [3] was > 7.00. Further, the pEC50 (in series [4]; with MMP13 in SW1353 cells) was < 6.00 each time.
In the case of `O=C(NCCc1cccnc1)c1ccc(-c2cccc3nc(NC(=O)C4CC4)nn23)cc1` [Compound 124, 4-(2-(cyclopropanecarboxamido)-[1,2,4]triazolo[1,5-a]pyridin-5-yl)-N-(2-(pyridin-3-yl)ethyl)benzamide], the “Microsomal Stability Human (%)” value in series [1] is reported as “* (* 0-25)”. Besides, the “Microsomal Stability Rat (%)” value in series [2] is “* (* 0-25)”. The pIC50 in series [3] was > 7.00. Moreover, the pEC50 (in series [4]; in the series with MMP13 in SW1353 cells) was < 6.00 in each case.
On to `CC1CC(C)CN(C(=O)c2ccc(-c3cccc4nc(NC(=O)C5CC5)nn34)cc2)C1` (stereo not drawn) [Compound 134], for which, in series [1], the “Microsomal Stability Human (%)” value was “*** (*** 51-75)”. In addition, the “Microsomal Stability Rat (%)” value in series [2] is reported as “** (** 26-50)”. Also, the negative-log IC50 (pIC50) in series [3] was > 7.00. Besides, the negative-log EC50 (pEC50) in series [4] was 6.00 to 6.30; in the series with MMP13 in SW1353 cells it was < 6.00.
On the same counts, the results for `O=C(Nc1nc2cccc(-c3ccc(C(=O)N4CCC(F)CC4)cc3)n2n1)C1CC1` [Compound 137, N-(5-(4-(4-fluoropiperidine-1-carbonyl)phenyl)-[1,2,4]triazolo[1,5-a]pyridin-2-yl)cyclopropanecarboxamide] are “*** (*** 51-75)”, “**** (**** 76-100)”, > 7.00, 6.00 to 6.30 and < 6.00.
Take `O=C(Nc1nc2cccc(-c3ccc(C(=O)N4CCC(c5cc6ccccc6[nH]5)CC4)cc3)n2n1)C1CC1` [Compound 138]: the “Microsomal Stability Human (%)” value in series [1] is listed as “** (** 26-50)”. In addition, the “Microsomal Stability Rat (%)” value in series [2] is given as “*** (*** 51-75)”. Also, the pIC50 in series [3] was > 7.00. Further, the pEC50 in series [4] was 6.30 to 7.00; in the series with MMP13 in SW1353 cells, < 6.00.
Take `CC1CCCCN1C(=O)c1ccc(-c2cccc3nc(NC(=O)C4CC4)nn23)cc1` (stereo not drawn) [Compound 144, N-(5-(4-(2-methylpiperidine-1-carbonyl)phenyl)-[1,2,4]triazolo[1,5-a]pyridin-2-yl)cyclopropanecarboxamide]: the “Microsomal Stability Human (%)” value in series [1] is recorded as “** (** 26-50)”. Further, in series [2], the “Microsomal Stability Rat (%)” value is “* (* 0-25)”. Also, the pIC50 in series [3] is > 7.00. The pEC50 (in series [4]; with MMP13 in SW1353 cells) was < 6.00 each time.
`CN(C)CCN(Cc1ccccc1)C(=O)c1ccc(-c2cccc3nc(NC(=O)C4CC4)nn23)cc1` [Compound 150, N-benzyl-4-(2-(cyclopropanecarboxamido)-[1,2,4]triazolo[1,5-a]pyridin-5-yl)-N-(2-(dimethylamino)ethyl)benzamide]: the “Microsomal Stability Human (%)” value in series [1] is recorded as “*** (*** 51-75)”. For the same compound, the “Microsomal Stability Rat (%)” value in series [2] is “* (* 0-25)”. Also, the pIC50 in series [3] is > 7.00. Further, the pEC50 (in series [4]; in the series with MMP13 in SW1353 cells) was < 6.00 throughout.
On to `O=C(Nc1nc2cccc(-c3ccc(OCc4ccc(-c5cn[nH]c5)nc4)cc3)n2n1)C1CC1` [Compound 166], for which the “Microsomal Stability Human (%)” value in series [1] is recorded as “*** (*** 51-75)”. In series [2], the “Microsomal Stability Rat (%)” value is “* (* 0-25)”. For the same compound, the pIC50 in series [3] is > 7.00. Also, the pEC50 (in series [4]; in the series with MMP13 in SW1353 cells) was < 6.00 throughout.
Consider `O=C(Nc1nc2cccc(-c3ccc(C(=O)N4CCCC(c5ccccc5)C4)cc3)n2n1)C1CC1` (stereo not drawn) [Compound 169, N-(5-(4-(3-phenylpiperidine-1-carbonyl)phenyl)-[1,2,4]triazolo[1,5-a]pyridin-2-yl)cyclopropanecarboxamide], for which the “Microsomal Stability Human (%)” value in series [1] was “* (* 0-25)”. Further, the “Microsomal Stability Rat (%)” value in series [2] is recorded as “* (* 0-25)”. In addition, in series [3], the pIC50 is > 7.00. For the same compound, the pEC50 (in series [4]; in the series with MMP13 in SW1353 cells) was < 6.00 each time.
In the case of `COc1ccc(NC(=O)c2ccc(-c3cccc4nc(NC(=O)C5CC5)nn34)cc2)cn1` [Compound 203, 4-[2-(Cyclopropanecarbonyl-amino)-[1,2,4]triazolo[1,5-a]pyridin-5-yl]-N-(6-methoxy-pyridin-3-yl)-benzamide], the “Microsomal Stability Human (%)” value in series [1] is “* (* 0-25)”. The “Microsomal Stability Rat (%)” value in series [2] is recorded as “*** (*** 51-75)”. In addition, the pIC50 in series [3] is > 7.00; in series [5] it was 6.30 to 7.00. Besides, the pEC50 in series [4] was < 6.00.
For `O=C(Nc1cccnc1)c1ccc(-c2cccc3nc(NC(=O)C4CC4)nn23)cc1` [Compound 206, 4-[2-(Cyclopropanecarbonyl-amino)-[1,2,4]triazolo[1,5-a]pyridin-5-yl]-N-pyridin-3-yl-benzamide], in that order: “**** (**** 76-100)”, “*** (*** 51-75)”, > 7.00, 6.30 to 7.00 and < 6.00.
